The text below walks through data of PMC4410942 (Chemistry & Biology, 2015).

The target of test [1] is T1, PanD-PanZ complex (PanD-PanZ.AcCoA) (Escherichia coli, UniProt P37613).
T1 construct: heterooctamer (4 PanD + 4 PanZ), about 124 kDa; with Aspartate 1-decarboxylase
Nature of the test: X-ray crystal structure. The test is classed as binding. Particulars: site on PanZ near the PanD interface; crystals from PEG 3350, bis-Tris propane pH 7.4; one AcCoA per PanZ.

In test [2] the target is T1, PanD-PanZ complex (PanD-PanZ.AcCoA). Nature of the test: X-ray crystal structure. Particulars: site on PanZ near the PanD interface; crystals from PEG 3350, bis-Tris propane pH 7.4; one AcCoA per PanZ. The test is classed as binding. This is another data set of the same source.
The next test has as its target T2, PanZ (Escherichia coli, UniProt P37613).
T2 construct: co-purifies with substoichiometric CoA derivatives; monomer
T2 sequence (P37613 1-127): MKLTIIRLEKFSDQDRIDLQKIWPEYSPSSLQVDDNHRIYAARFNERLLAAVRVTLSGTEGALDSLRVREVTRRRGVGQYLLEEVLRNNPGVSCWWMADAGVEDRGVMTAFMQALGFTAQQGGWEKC
Nature of the test: 1H-15N HSQC NMR. The test is classed as binding. The following applies: 0.2 mM PanZ, 50 mM Tris-HCl pH 7.5, 0.1 M NaCl, 0.1 mM DTT, 25 °C.

The target in the next test is ADC (activated PanD) (Escherichia coli, UniProt P0A790). Particulars: without PanZ; 25 °C; 2.5 μM ADC; curves with and without PanZ.AcCoA fitted with a shared KM.

Each structure is given as a SMILES string.

For `CC(=O)SCCNC(=O)CCNC(=O)[C@H](O)C(C)(C)COP(=O)(O)OP(=O)(O)OC[C@H]1O[C@@H](n2cnc3c(N)ncnc32)[C@H](O)[C@@H]1OP(=O)(O)O` [AcCoA], the X-ray crystal structure in test [1] is 4CS0 (PanD(S25A)-PanZ.AcCoA); in test [2] it was “PDB ID 4CRZ (PanD(T57V)-PanZ.AcCoA)”. Further, the “1H-15N HSQC NMR” value at PanZ is on record as “Addition of excess AcCoA led to simplification of the spectrum (Figure 3D)”.

For the compound `N[C@@H](CC(=O)O)C(=O)O` [compound 5, L-aspartate], the KM result on ADC (activated PanD) is listed as “Individual curves are fitted to the Michaelis-Menten curve with a shared value of KM”.
